Data from paper PMC9601927 (Foods, 2022).

Legend:
[1] = test system: GLUT2; assay: siRNA-mediated knockdown of GLUT2 in Caco-2 cells (RT-PCR, Western blot); assay type: cell-based; settings: 72 h post-transfection
Description: (§1) To examine the effect of sGLT1 and GLUT2 on ANC transmembrane transport in more detail, the Caco-2 cells were transfected with siRNA targeted to sGLT1 and GLUT2 (sGLT1 siRNA-1, sGLT1 siRNA-2, sGLT1 siRNA-3, GLUT2 siRNA-1, GLUT2 siRNA-2, and GLUT2 siRNA-3) to knockdown their expression on day 18 after differentiation. The specific experimental operation was carried out according to the literature. NC siRNA was used as a negative control. The siRNA oligos and all transfection reagents were provided by Hippobio (Huzhou, China). Western blotting and real-time PCR (RT-PCR) analyses were performed to check the sGLT1 and GLUT2 expression levels after 72 h post-transfection.
(§2) According to the manufacturer’s instructions, the MiniBEST Universal RNA Extraction Kit was used to isolate the total RNA from Caco-2 cells. Table 2 lists the three specific primers. GAPDH served as an internal control. […] The 2^−ΔΔCt method was adopted to calculate the relative quantification of the target gene.
(§3) Firstly, the cells were washed twice with 1 mL of cold PBS and then lysed in 100 μL of ice-cold RIPA lysis buffer. […] Finally, the expressions of sGLT1 and GLUT2 were detected using a Western blot assay.

[2] = test system: sGLT1; assay: siRNA-mediated knockdown of sGLT1 in Caco-2 cells (RT-PCR, Western blot); assay type: cell-based; settings: 72 h post-transfection
Description: as §1, §2, §3

Substance | reduction of GLUT2 mRNA levels (RT-PCR) [1] [%] | silencing of GLUT2 (Western blot) after siRNA transfection [1] | expression of sGLT1 (Western blot) after siRNA transfection [2] | reduction of sGLT1 mRNA levels (RT-PCR) [2] [%]
GLUT2 siRNA-2: siRNA targeted to GLUT2: CGGGCATTCTTATTAGTCATT TGACTAATAAGAATGCCCGTT (CGGGCATTCTTATTAGTCATTTGACTAATAAGAATGCCCGTT; chemistry not given here) | 75 | most effective segment | – | –
sGLT1 siRNA-3: siRNA targeted to sGLT1: GGAGCGTATTGACCTGGATTT ATCCAGGTCAATACGCTCCTT (GGAGCGTATTGACCTGGATTTATCCAGGTCAATACGCTCCTT; chemistry not given here) | – | – | significantly reduced | 85
